Laboratory results reported in patent US20080171783A1, “COMPOSITIONS AND METHODS FOR TREATING HYPERPROLIFERATIVE DISEASE” (Migenix Inc., priority 2006, published 2008).

How the values were obtained:
[1] = tested on: 5 Leukemia and 5 Colon Cancer Cell Lines; assay: Cell viability by XTT, cell line panel; assay type: cell-based; settings: 10 μM
Method: (§1) Compounds were solubilized at […] in DMSO and were stored at −20° C. Test compounds were initially tested at a single concentration of 10 μM and a subset of test compounds were further tested in selected cell lines using a six concentration dose response curve.
(§2) Cell Preparation Cancer cell lines were passaged in T-75 flasks prior to use in the assay in cell culture medium recommended by the ATCC (American Type Culture Collection; Table 6). On the day preceding the assay, the cells were split 1:2 to assure they were in an exponential growth phase at the time of compound treatment. Total cell and viability quantification was performed using a hemocytometer and Trypan Blue dye exclusion. […] The cells were resuspended at the appropriate cell per mL (Table 6) in tissue culture medium and added to the microtitre plates in a volume of 100 μL. Colon cell lines were incubated overnight at 37° C./5% CO2 to allow for cell adherence to the plates.
(§3) Plate Format: Each plate contains cell control wells (cells only), drug calorimetric control wells (drug only) as well as experimental wells (drug plus cells). Samples were tested in triplicate at a concentration of 10 μM and five half-logarithmic dilutions.
(§4) Cell Viability by XTT: Following incubation at 37° C. in a 5% CO2 incubator for four days, the test plates were stained with the tetrazolium dye XTT (2,3-bis(2-methoxy-4-nitro-5-sulfophenyl)-5-[(phenylamino)carbonyl]-2H-tetrazolium hydroxide). XTT-tetrazolium was metabolized by the mitochondrial enzymes of metabolically active cells to a soluble formazan product. XTT solution was prepared daily as a stock of 1 mg/mL in RPMI1640. Phenazine methosulfate (PMS) solution was prepared at 0.15 mg/mL in phosphate buffered saline (PBS) and stored in the dark at −20° C. XTT/PMS stock was prepared immediately before use by adding 40 μL of PMS per mL of XTT solution. Fifty (50) microlitres of XTT/PMS was added to each well of the plate and the plate was reincubated for 4 hours at 37° C. Plates were sealed with adhesive plate sealers and shaken gently or inverted several times to mix the soluble formazan product and the plate was read spectrophotometrically at 450/650 nm with a Molecular Devices Vmax plate reader. […] An Average Response Factor (ARF) was calculated for each compound by averaging the ten Percentage of Control values for the cell lines. […] Deviations below 100% control indicate activity. The concentration of each tested compound is 10 μM.

HT29 = assay: cells; settings: HT29, single dose 10 μM, four days
Method: as §1, §2, §3, §4

HCT-15 = assay: Cell viability by XTT; assay type: cell-based; settings: HCT-15, single dose 10 μM, four days
Method: as §1, §2, §3, §4

HL-60 = assay: Cell viability by XTT; assay type: cell-based; settings: HL-60, single dose 10 μM, four days
Method: as §1, §2, §3, §4

Jurkat = assay: Cell viability by XTT; settings: single dose 10 μM, four days
Method: as §1, §2, §3, §4

THP-1 = assay: Cell viability by XTT; settings: THP-1, single dose 10 μM, four days
Method: as §1, §2, §3, §4

Caco-2 = assay: Cell viability by XTT
Method: as §1, §2, §3, §4

Calf polymerase alpha = molecular target: T1, Calf polymerase alpha (Bos taurus, UniProt A0AAA9TD94); assay: Calf polymerase alpha inhibition (Replizyme kit); assay type: biochemical; settings: for IC50: dose response
T1 construct: purchased Replizyme Ltd (Heslington, York, UK)
T1 sequence (A0AAA9TD94 1-1441): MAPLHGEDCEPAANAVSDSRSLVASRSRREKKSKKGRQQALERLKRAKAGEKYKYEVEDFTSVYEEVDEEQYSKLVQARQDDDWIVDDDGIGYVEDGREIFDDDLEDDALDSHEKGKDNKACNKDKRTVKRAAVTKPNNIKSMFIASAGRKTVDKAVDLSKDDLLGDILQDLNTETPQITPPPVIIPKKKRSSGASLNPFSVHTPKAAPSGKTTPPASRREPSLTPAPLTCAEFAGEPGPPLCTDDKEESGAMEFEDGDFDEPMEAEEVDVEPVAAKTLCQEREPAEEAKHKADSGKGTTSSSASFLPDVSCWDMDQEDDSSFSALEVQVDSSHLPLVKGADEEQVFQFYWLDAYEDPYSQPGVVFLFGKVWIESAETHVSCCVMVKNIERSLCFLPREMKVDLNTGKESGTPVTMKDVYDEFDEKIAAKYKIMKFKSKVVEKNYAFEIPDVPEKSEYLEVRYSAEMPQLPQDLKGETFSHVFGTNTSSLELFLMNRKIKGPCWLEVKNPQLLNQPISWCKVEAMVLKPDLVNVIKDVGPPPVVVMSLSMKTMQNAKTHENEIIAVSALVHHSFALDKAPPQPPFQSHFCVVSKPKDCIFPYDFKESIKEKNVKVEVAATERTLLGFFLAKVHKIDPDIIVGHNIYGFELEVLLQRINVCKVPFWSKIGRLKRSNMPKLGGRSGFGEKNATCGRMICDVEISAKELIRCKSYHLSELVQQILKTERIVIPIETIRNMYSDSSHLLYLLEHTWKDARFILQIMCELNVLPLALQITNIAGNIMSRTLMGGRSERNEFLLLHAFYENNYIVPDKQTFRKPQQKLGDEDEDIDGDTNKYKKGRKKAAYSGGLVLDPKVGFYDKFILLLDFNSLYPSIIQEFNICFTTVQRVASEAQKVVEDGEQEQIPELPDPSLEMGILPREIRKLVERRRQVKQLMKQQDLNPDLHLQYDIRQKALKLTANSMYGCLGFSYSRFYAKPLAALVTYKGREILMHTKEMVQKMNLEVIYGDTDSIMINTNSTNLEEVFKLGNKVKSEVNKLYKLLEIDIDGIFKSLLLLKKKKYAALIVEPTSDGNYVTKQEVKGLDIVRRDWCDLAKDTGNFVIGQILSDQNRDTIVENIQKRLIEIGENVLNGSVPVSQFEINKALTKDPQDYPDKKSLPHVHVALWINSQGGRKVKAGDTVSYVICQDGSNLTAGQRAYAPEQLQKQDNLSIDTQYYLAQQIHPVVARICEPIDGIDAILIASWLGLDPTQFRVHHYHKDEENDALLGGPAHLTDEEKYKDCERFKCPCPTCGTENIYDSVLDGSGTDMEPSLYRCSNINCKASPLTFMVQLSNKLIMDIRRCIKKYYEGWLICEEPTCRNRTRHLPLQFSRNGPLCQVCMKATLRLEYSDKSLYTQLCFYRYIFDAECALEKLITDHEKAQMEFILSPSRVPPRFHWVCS
Method: (§5) Calf polymerase alpha and human polymerase alpha investigations were performed with a kit available from Replizyme Ltd (Heslington, York, UK).

human polymerase alpha = molecular target: T2, human polymerase alpha (Homo sapiens, UniProt P09884); assay: Human polymerase alpha inhibition (Replizyme kit); assay type: biochemical; settings: dose response
T2 construct: purchased Replizyme Ltd (Heslington, York, UK)
T2 sequence (P09884 1-1462): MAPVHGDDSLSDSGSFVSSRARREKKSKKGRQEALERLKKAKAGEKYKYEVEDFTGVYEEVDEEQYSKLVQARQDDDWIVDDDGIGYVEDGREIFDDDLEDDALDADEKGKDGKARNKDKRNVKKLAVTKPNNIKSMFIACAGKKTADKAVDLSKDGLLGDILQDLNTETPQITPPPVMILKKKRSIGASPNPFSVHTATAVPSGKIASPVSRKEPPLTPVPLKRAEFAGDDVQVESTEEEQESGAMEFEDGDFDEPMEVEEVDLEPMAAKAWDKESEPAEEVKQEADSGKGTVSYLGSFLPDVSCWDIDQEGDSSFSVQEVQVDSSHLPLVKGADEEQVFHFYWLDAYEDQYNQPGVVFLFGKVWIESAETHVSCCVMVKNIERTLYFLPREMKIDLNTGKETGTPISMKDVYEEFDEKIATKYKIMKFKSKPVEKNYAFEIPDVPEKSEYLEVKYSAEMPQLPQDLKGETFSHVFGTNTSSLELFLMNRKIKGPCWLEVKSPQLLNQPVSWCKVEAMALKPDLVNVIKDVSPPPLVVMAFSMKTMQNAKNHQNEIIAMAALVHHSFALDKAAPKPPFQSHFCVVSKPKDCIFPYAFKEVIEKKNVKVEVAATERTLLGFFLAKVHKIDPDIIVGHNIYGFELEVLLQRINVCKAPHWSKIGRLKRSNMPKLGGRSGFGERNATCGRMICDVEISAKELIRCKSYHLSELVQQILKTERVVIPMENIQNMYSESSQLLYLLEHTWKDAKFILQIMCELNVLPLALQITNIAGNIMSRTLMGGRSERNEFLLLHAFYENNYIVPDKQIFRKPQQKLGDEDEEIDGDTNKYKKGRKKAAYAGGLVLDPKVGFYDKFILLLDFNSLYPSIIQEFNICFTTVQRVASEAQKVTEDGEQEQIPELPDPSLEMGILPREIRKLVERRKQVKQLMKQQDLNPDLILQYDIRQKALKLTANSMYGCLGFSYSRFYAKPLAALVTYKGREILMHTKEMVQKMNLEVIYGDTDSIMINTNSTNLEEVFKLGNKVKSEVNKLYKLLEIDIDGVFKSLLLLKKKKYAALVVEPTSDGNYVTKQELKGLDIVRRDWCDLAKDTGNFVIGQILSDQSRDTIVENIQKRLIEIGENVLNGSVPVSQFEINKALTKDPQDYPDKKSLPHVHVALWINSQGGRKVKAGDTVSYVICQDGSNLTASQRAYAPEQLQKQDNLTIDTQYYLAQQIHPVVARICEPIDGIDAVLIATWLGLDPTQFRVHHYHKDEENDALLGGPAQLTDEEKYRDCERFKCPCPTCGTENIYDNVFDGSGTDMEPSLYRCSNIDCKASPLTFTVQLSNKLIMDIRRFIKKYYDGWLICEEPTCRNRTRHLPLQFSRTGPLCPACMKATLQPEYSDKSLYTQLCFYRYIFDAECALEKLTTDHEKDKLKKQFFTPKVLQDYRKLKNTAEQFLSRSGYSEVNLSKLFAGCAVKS
Method: as §5

[2] = Cytotoxicity Huh-7 cells (MTS/PMS); assay type: cell-based; settings: human, 3-day incubation
Method: Cytotoxicity of compounds for use in treating hyperproliferative diseases or disorders was tested in Huh-7 cells using tetrazolium salt MTS combined with the electron acceptor PMS in a 96-well format. Six doses of each compound was tested, starting at about 1.2 μM to 0.4 μM serially diluted in a final 1% DMSO solution in DMEM/F12 media. Terfenadine was used as a positive control. Cells were seeded at 2.5×10^5 cells/mL in each well of the 96-well plates in a final volume of 0.1 mL, and then incubated at 37° C. in the presence of 5% CO2 overnight. Compounds (in media) were added the following day and the treated cells were incubated another 3-days at 37° C. in the presence of 5% CO2. After the 3-day incubation, 20 μL of MTS/PMS (3-(4,5-dimethylthiazol-2-yl)-5-(3-carboxymethoxy-phenyl)-2-(4-sulfophenyl)-2H-tetrazolium) was added to each well. After about a one to four hour incubation of MTS/PMS at 37° C. and 5% CO2—that is, until an OD490 absorbance of ≧0.6 for the wells containing cells with media only, the level of cytotoxicity at each concentration was calculated. […] Dose response results from the cytotoxicity assay (CC50) are provided in Table 4 in comparison with IC50 data (from Table 2)

[3] = at 10 μM, single point screening

IC50 (human polymerase alpha) [µM] | SMILES | ARF (Average Response Factor, Average Percentage of Control) ([1]; average of the ten Percentage of Control values) [%] | Range (Percentage of Control over the same 10 cell lines) ([1]; lowest to highest of the ten cell lines) [%] | Percentage of Cell Control (HT29) [%] | Percentage of Cell Control (HCT-15) [%] | Percentage of Cell Control (HL-60) [%] | Percentage of Cell Control (Jurkat) [%] | Percentage of Cell Control (THP-1) [%] | Percentage of Cell Control (Caco-2; Caco-2, single dose 10 μM, four days) [%] | CC50 (Caco-2; read-out: Activity (TC50), Caco-2, six concentration dose response, Table 9) [µM] | % Inhibition (Calf polymerase alpha; [3]) [%] | CC50 at 3 days [2] [µM] | inhibition at 10 µM (Calf polymerase alpha; [3]) [%] | IC50 (Calf polymerase alpha) [µM]
– | Cc1ccc(NC(=O)[C@H](CCCCN)NC(=O)Cc2ccc(-c3ccccc3)cc2)cc1 [Compound 50, (S)-6-AMINO-2-(2-BIPHENYL-4-YL-ACETYLAMINO)-HEXANOIC ACID P-TOLYLAMIDE] | 77.7 | 4.6 to 122 | 27.7 | 114.3 | 91.7 | 4.6 | 89.7 | 8.3 | 9.4 | 71 | – | – | –
1.5 | NCCCC[C@H](NC(=O)Nc1ccc(-c2ccccc2)cc1)C(=O)Nc1ccc(C2CCCCC2)cc1 [Compound 119, (S)-6-AMINO-2-(3-BIPHENYL-4-YL-UREIDO)-HEXANOIC ACID (4-CYCLOHEXYL-PHENYL)-AMIDE] | – | – | – | – | – | – | – | – | – | – | 12.2 | 102 | 1.5
3 | Cc1ccc(NC(=O)[C@H](CCCCN)NC(=O)Nc2ccc3c(c2)Cc2ccccc2-3)cc1 [Compound 125, (S)-6-AMINO-2-[3-(9H-FLUOREN-2-YL)-UREIDO]-HEXANOIC ACID P-TOLYLAMIDE] | – | – | – | – | – | – | – | – | – | – | 9.7 | 100 | 2.8
8 | Cc1ccc(NC(=O)C[C@H](CCCCN)NC(=O)Nc2ccc(OCc3ccccc3)cc2)cc1 [Compound 246, (S)-7-AMINO-3-[3-(4-BENZYLOXY-PHENYL)-UREIDO]-HEPTANOIC ACID P-TOLYLAMIDE] | – | – | – | – | – | – | – | – | – | – | 45.9 | 46.6 | 9.8
68 | Cc1ccc(NC(=O)[C@H](CCCCN)NC(=O)Nc2ccc(OCc3ccccn3)cc2)cc1 [Compound 299, (S)-6-AMINO-2-{3-[4-(PYRIDIN-2-YLMETHOXY)-PHENYL]-UREIDO}-HEXANOIC ACID P-TOLYLAMIDE] | – | – | – | – | – | – | – | – | – | – | > 100 | 16 | > 30
72 | NCCCC[C@H](NC(=O)Nc1ccc(OCc2ccccc2)cc1)C(=O)NCc1ccco1 [Compound 302, (S)-6-AMINO-2-[3-(4-BENZYLOXY-PHENYL)-UREIDO]-HEXANOIC ACID (FURAN-2-YLMETHYL)-AMIDE] | – | – | – | – | – | – | – | – | – | – | > 100 | 5 | > 30
